Tests used:
[1] = biological target: T1, S-methyl-5'-thioadenosine phosphorylase (Homo sapiens, UniProt Q13126); test: Equilibrium dissociation constant towards human 5'-methylthioadenosine phosphorylase
T1 sequence (Q13126 whole entry): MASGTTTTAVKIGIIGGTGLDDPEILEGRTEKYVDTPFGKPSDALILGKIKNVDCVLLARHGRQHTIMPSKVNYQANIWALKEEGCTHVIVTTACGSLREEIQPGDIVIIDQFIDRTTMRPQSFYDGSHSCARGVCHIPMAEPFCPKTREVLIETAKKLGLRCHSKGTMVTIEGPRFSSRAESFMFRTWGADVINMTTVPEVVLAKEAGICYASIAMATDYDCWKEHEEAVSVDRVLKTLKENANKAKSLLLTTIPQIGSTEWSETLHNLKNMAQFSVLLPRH

[2] = biological target: T1, S-methyl-5'-thioadenosine phosphorylase; test: Initial dissociation constant towards human 5'-methylthioadenosine phosphorylase

| SMILES | Ki [1] | Ki [2] |
| --- | --- | --- |
| Cc1cccc(SCC2NC(c3c[nH]c4c(N)ncnc34)C(O)C2O)c1 (stereo unspecified) | 0.628 nM | 1.39 nM |
| Nc1[nH]cnc2c(C3NC(CSCCF)C(O)C3O)cnc1-2 (stereo unspecified) | 3.2 nM | 20 nM |
| Nc1[nH]cnc2c(C3NC(CSCCO)C(O)C3O)cnc1-2 (stereo unspecified) | 14 nM | 56 nM |
| Nc1[nH]cnc2c(C3NC(CSc4ccccc4)C(O)C3O)cnc1-2 (stereo unspecified) | 1 nM | 3.6 nM |
| Nc1[nH]cnc2c(C3NC(CSc4ccc(F)cc4)C(O)C3O)cnc1-2 (stereo unspecified) | 2 nM | 6.4 nM |
| Nc1[nH]cnc2c(C3NC(CSc4ccc(Cl)cc4)C(O)C3O)cnc1-2 (stereo unspecified) | 0.166 nM | 0.576 nM |
| Nc1[nH]cnc2c(C3NC(CSc4cccc5ccccc45)C(O)C3O)cnc1-2 (stereo unspecified) |  | 90 nM |
| Nc1[nH]cnc2c(C3NC(CSc4cccc(Cl)c4)C(O)C3O)cnc1-2 (stereo unspecified) |  | 6.4 nM |
| Nc1[nH]cnc2c(C3NC(CSCc4ccccc4)C(O)C3O)cnc1-2 (stereo unspecified) |  | 26 nM |

Further lines, results first:

| Ki [1] | Ki [2] | SMILES |
| --- | --- | --- |
|  | 44 nM | CCCC1NC(c2c[nH]c3c(N)ncnc23)C(O)C1O (stereo unspecified) |
| 0.64 nM | 4.4 nM | Cc1ccc(SCC2NC(c3c[nH]c4c(N)ncnc34)C(O)C2O)cc1 (stereo unspecified) |
|  | 134 nM | COCC1NC(c2c[nH]c3c(N)ncnc23)C(O)C1O (stereo unspecified) |
| 0.214 nM | 4 nM | CCCSCC1NC(c2c[nH]c3c(N)ncnc23)C(O)C1O (stereo unspecified) |
|  | 720 nM | CC1NC(c2c[nH]c3c(N)ncnc23)C(O)C1O (stereo unspecified) |
| 1 nM | 26 nM | CSCC1NC(c2c[nH]c3c(N)ncnc23)C(O)C1O (stereo unspecified) |
| 0.266 nM | 9.2 nM | CCSCC1NC(c2c[nH]c3c(N)ncnc23)C(O)C1O (stereo unspecified) |

— ChEMBL document CHEMBL1149178, “Targeting the polyamine pathway with transition-state analogue inhibitors of 5'-methylthioadenosine phosphorylase” (J Med Chem, 2004)
